# Positions of bridges follow the written chain, without caps; N, C: chain ends. Residues, ends and D or L forms follow the SMILES beside them.
# Experiments:
# normal rats = experiment: Hemodynamic parameters in normal anesthetized rats (Example 10)
# [1] = system: rats with chronic heart failure; experiment: Rat model of chronic heart failure, left coronary artery occlusion, anesthetized (Example 10); details: HF rats
# [2] = Stability assay in rat plasma (Example 6); assay type: in vitro ADME; details: 24 h at 37° C., read-out: peptide remaining in plasma
# Protocol: (§1) Stability assay in human and rat plasma: Human or rat plasma (sample size 200 μL) was incubated at 37° C. for 5 min. 50 μL peptide stock solution (5 mg/mL) was added to the plasma. The vortexed reaction mixture was incubated at 37° C. Sample aliquots of 30 μL were taken from the reaction mixture at sequential intervals of 0 h, 1 h, 2 h, 4 h and 24 h and the sample reaction quenched immediately with 30 μL extraction buffer containing 50% Acetonitrile, 50% 0.1 M NaCl and 1% TFA. The quenched aliquots were cooled in ice for 5 min prior to centrifugation at 14,000 rpm for 15 min. 20 μl of the supernatant from each of the centrifuged aliquots was injected into RP-HPLC for analysis.
# rat GC-A = biological target: T1, rat GC-A (Rattus norvegicus, UniProt P18910); experiment: Cell cyclic GMP elevations in HEK-293 cells stably expressing rat GC-A (Example 4); assay type: cell-based; details: 0.1 μM; 293 cells over-expressing GC-A
# T1 construct: expressed in transfected cells
# T1 sequence (P18910 29-1057): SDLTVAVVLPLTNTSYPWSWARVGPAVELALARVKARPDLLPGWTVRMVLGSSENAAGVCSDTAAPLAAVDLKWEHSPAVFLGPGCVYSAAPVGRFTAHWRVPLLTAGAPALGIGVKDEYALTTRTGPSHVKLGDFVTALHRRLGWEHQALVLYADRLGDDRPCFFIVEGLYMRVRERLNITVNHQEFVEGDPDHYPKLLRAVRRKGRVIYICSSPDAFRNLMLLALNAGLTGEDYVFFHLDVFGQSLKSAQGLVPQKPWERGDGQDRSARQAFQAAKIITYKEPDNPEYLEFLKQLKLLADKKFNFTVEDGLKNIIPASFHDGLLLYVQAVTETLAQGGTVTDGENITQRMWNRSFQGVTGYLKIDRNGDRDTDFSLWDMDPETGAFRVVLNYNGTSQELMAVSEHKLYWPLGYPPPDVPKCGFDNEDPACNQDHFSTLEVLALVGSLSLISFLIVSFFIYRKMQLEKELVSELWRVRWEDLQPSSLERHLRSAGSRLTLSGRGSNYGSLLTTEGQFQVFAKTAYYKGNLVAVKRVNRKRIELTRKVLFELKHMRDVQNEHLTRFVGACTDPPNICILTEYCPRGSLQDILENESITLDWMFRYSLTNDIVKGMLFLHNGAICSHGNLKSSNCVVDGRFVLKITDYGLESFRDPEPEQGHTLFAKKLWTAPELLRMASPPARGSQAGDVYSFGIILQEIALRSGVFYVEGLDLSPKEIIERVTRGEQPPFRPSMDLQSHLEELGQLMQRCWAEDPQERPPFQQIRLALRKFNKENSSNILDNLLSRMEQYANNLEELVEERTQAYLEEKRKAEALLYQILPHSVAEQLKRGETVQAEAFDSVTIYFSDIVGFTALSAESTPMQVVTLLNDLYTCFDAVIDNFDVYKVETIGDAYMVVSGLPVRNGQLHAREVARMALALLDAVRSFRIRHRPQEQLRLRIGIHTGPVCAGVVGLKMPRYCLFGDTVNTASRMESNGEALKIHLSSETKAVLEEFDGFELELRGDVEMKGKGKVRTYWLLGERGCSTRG
# From the text: The human embryonic kidney 293 (HEK-293) cell line was used for the stable expression of rat GC-A (GC-A/293). Cells expressing rat GC-A (GC-A/293) in the HEK-293 cell line were as previously described (Potter L. R., and Garbers D. L., (1992), J Biol Chem. 26, 14531-4) and determination of cGMP elevations was undertaken as previously described (Chrisman et al. T. D., Schulz, S., Potter, L. R. and Garbers, D. L., (1993,) J. Biol. Chem. (1993) 268 (5), 3698-3703). Responses were expressed as a percentage of the effect produced by ANP.
# [3] = Stability assay in human plasma (Example 6); assay type: in vitro ADME; details: 24 h at 37° C., read-out: peptide remaining in plasma
# Protocol: Plasma preparation: Blood samples (from healthy human volunteers) were drawn into a sealed tube containing ethylene diamine tetra-acetic acid (EDTA). After sampling, the plasma was separated by centrifugation at 14,000 rpm for 30 min. Plasma was taken out and stored in separated Eppendorf tubes at −20° C.
# as §1
smiles,measurement,setting,value
CC[C@H](C)[C@H](NC(=O)[C@H](CCCCN)NC(=O)[C@H](CO)NC(=O)[C@H](CC(=O)O)NC(=O)[C@@H](N)CO)C(=O)NCC(=O)N[C@@H](CC(N)=O)C(=O)NCC(=O)N[C@H]1CSSC[C@@H](C(=O)N[C@@H](CC(N)=O)C(=O)N[C@@H](CCCNC(=N)N)C(=O)N[C@H](C(=O)N[C@@H](CCSC)C(=O)N[C@@H](CCC(N)=O)C(=O)N[C@@H](CC(N)=O)C(=O)N2CCC[C@H]2C(=O)N2CCC[C@H]2C(=O)N[C@@H](CCCCN)C(=O)N[C@@H](CCCCN)C(=O)N[C@@H](Cc2ccccc2)C(=O)N[C@@H](CO)C(=O)NCC(=O)N[C@@H](CCC(=O)O)C(=O)O)[C@@H](C)CC)NC(=O)CNC(=O)[C@H](CC(C)C)NC(=O)CNC(=O)[C@H](CO)NC(=O)[C@H](C(C)C)NC(=O)[C@H](CO)NC(=O)CNC(=O)[C@H]([C@@H](C)CC)NC(=O)[C@H](CCCNC(=N)N)NC(=O)[C@H](CC(=O)O)NC(=O)[C@H](CC(C)C)NC(=O)[C@@H]2CCCN2C(=O)[C@H](Cc2ccccc2)NC(=O)CNC(=O)[C@H](Cc2ccccc2)NC1=O [TNPc] (H-SDSKIGNGCFGFPLDRIGSVSGLGCNRIMQNPPKKFSGE-OH; disulfide 9-25),"Blood Flow, mean change from control","normal rats; 50 pmol/kg/min, 30 min",-5.2 mL/min
same,"Conductance, mean change from control","normal rats; 50 pmol/kg/min, 30 min",−1.1 ml/min/mmHg
same,"Diastolic LVP, mean change from control","normal rats; 50 pmol/kg/min, 30 min",−1.4 mmHg
same,"HCT, mean change from control","normal rats; 50 pmol/kg/min, 30 min",−1.7%
same,"HR, mean change from control","normal rats; 50 pmol/kg/min, 30 min",−13.5 BPM
same,"Mean BP, mean change from control","normal rats; 50 pmol/kg/min, 30 min",−21.0 mmHg
same,"Urine Flow, mean change from control","normal rats; 50 pmol/kg/min, 30 min",0.4 mL/h
same,"Blood Flow, mean change from control","normal rats; 100 pmol/kg/min, 30 min",-7.3 mL/min
same,"Conductance, mean change from control","normal rats; 100 pmol/kg/min, 30 min",−2.1 ml/min/mmHg
same,"Diastolic LVP, mean change from control","normal rats; 100 pmol/kg/min, 30 min",−0.9 mmHg
same,"HCT, mean change from control","normal rats; 100 pmol/kg/min, 30 min",−3.5%
same,"HR, mean change from control","normal rats; 100 pmol/kg/min, 30 min",−23.6 BPM
same,"Mean BP, mean change from control","normal rats; 100 pmol/kg/min, 30 min",−25.9 mmHg
same,"Urine Flow, mean change from control","normal rats; 100 pmol/kg/min, 30 min",0.9 mL/h
same,"Blood Flow, mean change from control",normal rats; Recovery,-3.0 mL/min
same,"Conductance, mean change from control",normal rats; Recovery,−1.3 ml/min/mmHg
same,"Diastolic LVP, mean change from control",normal rats; Recovery,−0.6 mmHg
same,"HCT, mean change from control",normal rats; Recovery,3.1%
same,"HR, mean change from control",normal rats; Recovery,−17.9 BPM
same,"Mean BP, mean change from control",normal rats; Recovery,−4.1 mmHg
same,"Urine Flow, mean change from control",normal rats; Recovery,0.6 mL/h
same,"Blood Flow, Average drug response SED",normal rats; average of the two doses,-6.2 mL/min
same,"Conductance, Average drug response SED",normal rats; average of the two doses,−1.6 ml/min/mmHg
same,"Diastolic LVP, Average drug response SED",normal rats; average of the two doses,−1.1 mmHg
same,"HCT, Average drug response SED",normal rats; average of the two doses,−2.6%
same,"HR, Average drug response SED",normal rats; average of the two doses,−18.6 BPM
same,"Mean BP, Average drug response SED",normal rats; average of the two doses,−23.5 mmHg
same,"Urine Flow, Average drug response SED",normal rats; average of the two doses,0.7 mL/h
same,"Blood Flow, mean change from control","[1]; 50 pmol/kg/min, 30 min",-1.6 mL/min
same,"Conductance, mean change from control","[1]; 50 pmol/kg/min, 30 min",−0.2 ml/min/mmHg
same,"Diastolic LVP, mean change from control","[1]; 50 pmol/kg/min, 30 min",−0.9 mmHg
same,"HCT, mean change from control","[1]; 50 pmol/kg/min, 30 min",1.5%
same,"HR, mean change from control","[1]; 50 pmol/kg/min, 30 min",−5.2 bpm
same,"Mean BP, mean change from control","[1]; 50 pmol/kg/min, 30 min",−11.8 mmHg
same,"Urine Flow, mean change from control","[1]; 50 pmol/kg/min, 30 min",1.0 mL/h
same,"Blood Flow, mean change from control","[1]; 100 pmol/kg/min, 30 min",-2.9 mL/min
same,"Conductance, mean change from control","[1]; 100 pmol/kg/min, 30 min",−0.4 ml/min/mmHg
same,"Diastolic LVP, mean change from control","[1]; 100 pmol/kg/min, 30 min",−1.6 mmHg
same,"HCT, mean change from control","[1]; 100 pmol/kg/min, 30 min",2.4%
same,"HR, mean change from control","[1]; 100 pmol/kg/min, 30 min",−14.8 bpm
same,"Mean BP, mean change from control","[1]; 100 pmol/kg/min, 30 min",−20.1 mmHg
same,"Urine Flow, mean change from control","[1]; 100 pmol/kg/min, 30 min",1.7 mL/h
same,"Blood Flow, mean change from control",[1]; Recovery,-0.5 mL/min
same,"Conductance, mean change from control",[1]; Recovery,0.6 ml/min/mmHg
same,"Diastolic LVP, mean change from control",[1]; Recovery,−1.4 mmHg
same,"HCT, mean change from control",[1]; Recovery,0.8%
same,"HR, mean change from control",[1]; Recovery,−16.5 bpm
same,"Mean BP, mean change from control",[1]; Recovery,−13.6 mmHg
same,"Urine Flow, mean change from control",[1]; Recovery,0.9 mL/h
same,"Blood Flow, Average drug response SED",[1]; average of the two doses,-2.2 ± 0.5 mL/min
same,"Conductance, Average drug response SED",[1]; average of the two doses,−0.3 ± 0.3 ml/min/mmHg
same,"Diastolic LVP, Average drug response SED",[1]; average of the two doses,−1.2±0.5 mmHg
same,"HCT, Average drug response SED",[1]; average of the two doses,1.9 ± 0.5%
same,"HR, Average drug response SED",[1]; average of the two doses,−10.0 ± 6.9 bpm
same,"Mean BP, Average drug response SED",[1]; average of the two doses,−15.9±4.1 mmHg
same,"remaining at 24 h, 1 mg/mL",[2],76%
same,"cGMP elevations, percentage of the effect produced by ANP",rat GC-A,equipotent to ANP and DNP
same,"remaining at 24 h, 1 mg/mL",[3],72%

# — US8058242B2, “Chimeric proteins with natriuretic activity” (The University of Queensland, priority 2004, dated 2011)
